In test [1] the target is T1, CK2 (Homo sapiens, UniProt P68400).
T1 construct: made in house; host or cells: Escherichia coli (CK2α)
Briefly: CK2 kinase assay with CK2β-independent peptide substrate […]. It counts as biochemical. On the procedure:
The following peptide substrates were employed: a canonical CK2 peptide substrate […] phosphorylated equally by CK2α and CK2α2β2 (CK2β-independent peptide substrate), and […] exclusively phosphorylated by CK2α2β2 (CK2β-dependent peptide substrate)[4]. GST-Olig2-(1-177), was used as a CK2β-dependent protein substrate.
CK2 kinase assays were performed in a final assay volume of 18 μL containing 3 μL of compounds, 3 μL of CK2α (36 ng) and a mixture of 1 mM peptide substrate, 10 mM MgCl2, and 1 μCi [γ^32P]-ATP. Final concentration of ATP was 100 μM. Assays were performed under linear kinetic conditions for 5 min at room temperature before termination by the addition of 60 μL of 4% TCA. ^32P incorporation in peptide substrate was determined as previously described.
Fig. S6. […] (a) Dose-dependent inhibition of CK2. CK2α (40 nM) was incubated with increasing concentrations of compound 1 (●), 4 (π) or 6 (○) in the presence of 20 nM CK2β. CK2 activity was determined with a saturating concentration of CK2β-dependent peptide substrate. (b) Differential effects of 6 on the phosphorylation of CK2 peptide substrates. CK2α (40 nM) was incubated with increasing concentrations of 6 in the presence of 20 nM CK2β. CK2 activity was determined with a saturating concentration of CK2β-independent peptide substrate (?) or CK2β-dependent peptide substrate (○). […]

In test [2] the test system is Akt phosphorylation at Ser129 in MCF10A cells. Briefly: Western blot of Akt Ser129 phosphorylation. Type of test: cell-based, human. Conditions: 48 h. On the procedure: Figure 5 Cellular effects of compounds 3, 4 and 6. MCF10A cells were incubated for 24 h with either DMSO or 30 μM TAT or 30 μM TAT-Pc or 25 μM 6 (a) or with increasing concentrations of 6 (b) or 3 (c). MCF10A cells were incubated for 48 h with either DMSO or with increasing concentrations of 3 or 6 (d). Cells were then lysed and analyzed by western blot with the indicated antibodies. Blot images are representative of at least three independent experiments. Uncropped blots are shown in Supplementary Fig. S16. (e) MDA-MB231 cells were treated with 40 μM 6 (⚬), 4 (▴) or 3 (X). (f) MDA-MB231 cells were treated for 30 h with increasing concentrations of 6 (⚬) or 4 (▴). Insert: cells were treated for 30 h with 80 μM 6 or 10 μM CX-4945. […] Cell death was automatically quantified from images captured every 3 h for the duration of the experiments using an Essen IncuCyte Zoom live-cell microscopy incubator. […]
Cells were lysed in RIPA buffer (10 mM Tris-HCl pH 7.4, 150 mM NaCl, 1% Triton X-100, 0.1% SDS, 0.5% DOC and 1 mM EDTA) containing both protease- and phosphatase-inhibitor cocktails (Sigma-Aldrich; P8340, P2850, P5726). Cell homogenates were quantified using BCA protein Assay kit (Thermo Scientific). […] Luminata Forte Western HRP substrate (Millipore) was added and membranes were read with Fusion Fx7 (PerkinElmer). […] Images were analyzed and band intensities were quantified using ImageJ software. […]

In test [3] the test system is MCF10A cells. Briefly: Scratch wound cell migration assay. Type of test: cell-based, human. The note with it: 40 μM. On the procedure: (§1) Cells seeded at equal density were allowed to grow to confluence overnight. The Essen Bioscience WoundMaker^TM, an accessory for the IncuCyte Zoom®, was utilized to create Scratch-wounds of a standardized width (~600 μm). Cells were treated with the indicated inhibitors and imaged every 15 min for 44 h and the percentage of wound confluence was analyzed.
(§2) Fig. S10. […] MCF10A cells (a) or MDA-MB231 cells (b) were allowed to grow to confluence overnight. Wounds of a standardized width were created using the Essen Bioscience WoundMakerTM. […] Wound closure was monitored using the Essen IncuCyte Zoom live-cell microscopy incubator. Images were captured every 2 h for the duration of the experiment. Error bars represent the SEM of two biological replicates derived from technical triplicates.

The test system of test [4] is MDA-MB231 cells. Briefly: Scratch wound cell migration assay. It counts as cell-based. The note with it: MDA-MB231, 40 μM. On the procedure: as §1, §2

Molecules are shown by their SMILES.

One may read the inhibition as the share of the control response that was lost under treatment.

T1 sequence (P68400 whole entry): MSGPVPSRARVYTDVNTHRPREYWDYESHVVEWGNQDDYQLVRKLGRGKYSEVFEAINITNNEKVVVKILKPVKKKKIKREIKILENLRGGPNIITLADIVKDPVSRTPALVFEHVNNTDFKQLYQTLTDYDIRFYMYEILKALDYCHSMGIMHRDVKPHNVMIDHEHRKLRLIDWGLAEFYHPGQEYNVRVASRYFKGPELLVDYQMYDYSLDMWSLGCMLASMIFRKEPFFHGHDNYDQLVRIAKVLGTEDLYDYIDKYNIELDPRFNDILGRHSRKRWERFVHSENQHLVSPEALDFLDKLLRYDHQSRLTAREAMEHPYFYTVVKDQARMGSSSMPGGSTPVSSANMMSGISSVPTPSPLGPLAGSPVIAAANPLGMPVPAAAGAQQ

Turning to `COc1[nH]c2ccc(F)cc2c1C(=O)OCC1CCN(CCNS(C)(=O)=O)CC1` [Compound 1], the inhibition at 50 µM in test [1] (at 50 μM, read-out: inhibition of phosphorylation of canonical CK2β-independent peptide substrate) was found to be 15%.
As to `CS(=O)(=O)NCCN1CCC(COC(=O)c2c[nH]c3ccccc23)CC1` [Compound 3, (1-(2-(Methylsulfonamido)ethyl)piperidin-4-yl)methyl 1H-indole-3-carboxylate], the “Akt phosphorylation at Ser129” value in test [2] (100 µM) is “slight but not statistically significant alteration”. In addition, the “cell migration / wound closure” value in test [3] and in test [4] was “not affected” throughout.
In the case of `COc1[nH]c2ccc(F)cc2c1C(=O)OCC1CCN(CCNS(=O)(=O)c2ccccc2)CC1.Cl` [Compound 6], the “phosphorylation of the CK2β-independent peptide substrate” value in test [1] (increasing concentrations, 40 nM CK2α, 20 nM CK2β) is “only weakly affected”. In addition, the “Akt phosphorylation at Ser129” value in test [2] (30 µM) is recorded as “slight but not statistically significant alteration”. Further, the “cell migration / wound closure” value in test [3] and in test [4] was “completely abrogated” each time.

(Values after article PMC6828666, “Discovery of holoenzyme-disrupting chemicals as substrate-selective CK2 inhibitors” (Scientific Reports, 2019).)
